Assay results published in patent US9365576B2, “Pyrrolopyrrolidinone compounds” (Novartis AG, priority 2012, dated 2016).
pIC50: −log10 of the molar value.

molecular target: human MDM2 protein (amino acids 2-188) (Homo sapiens (Human), UniProt Q00987); assay: TR-FRET assay, p53-MDM2 Assay 2 (modified); format: binding; conditions: TR-FRET; 0.1 nM MDM2, 0.1 nM Europium labeled streptavidin, Tecan genios Pro reader; read-out: IC50 p53-MDM2 Assay 2
Summary of the method: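 IC50 values were curve-fitted from the time-resolved 665/620 nm emission ratio after 340 nm excitation. The assay combined 0.625 nM europium-streptavidin donor with 1.25 nM C-terminally biotinylated MDM2 2–188 (15 min, RT), followed by 15 min with 10 nM Cy5-labeled p53 18–26 acceptor peptide.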

human MDM2 protein (amino acids 2-188), sequence (Q00987 2-188): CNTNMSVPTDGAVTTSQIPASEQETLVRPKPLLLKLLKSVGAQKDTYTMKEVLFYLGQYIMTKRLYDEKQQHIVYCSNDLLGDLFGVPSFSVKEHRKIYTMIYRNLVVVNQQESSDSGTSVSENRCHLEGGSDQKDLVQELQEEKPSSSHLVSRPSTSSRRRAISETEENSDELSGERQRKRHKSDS

| SMILES | pIC50 |
| --- | --- |
| COc1ccccc1-c1cc2c(n1C(C)C)C(c1ccc(Cl)cc1C)N(C1CCOCC1)C2=O (stereo not drawn) [Example 104, 6-(4-Chloro-2-methyl-phenyl)-1-isopropyl-2-(2-methoxy-phenyl)-5-(tetrahydro-pyran-4-yl)-5,6-dihydro-1H-pyrrolo[3,4-b]pyrrol-4-one] | 7.81 |
| COc1ncc(-c2cc3c(n2C(C)C)[C@@H](c2ccc(C#N)cc2)N(c2cc(Cl)c(=O)n(C)c2)C3=O)c(OC)n1 [Example 187, 4-[(R)-5-(5-Chloro-1-methyl-6-oxo-1,6-dihydro-pyridin-3-yl)-2-(2,4-dimethoxy-pyrimidin-5-yl)-1-isopropyl-4-oxo-1,4,5,6-tetrahydro-pyrrolo[3,4-b]pyrrol-6-yl]-benzonitrile] | 6.84 |
| Cc1ccc(Cl)cc1N1C(=O)c2cc(-c3ccccc3O)n(C(C)C)c2C1c1ccc(Cl)cc1 (stereo not drawn) [Example 29, 5-(5-Chloro-2-methyl-phenyl)-6-(4-chloro-phenyl)-2-(2-hydroxy-phenyl)-1-isopropyl-5,6-dihydro-1H-pyrrolo[3,4-b]pyrrol-4-one] | 9.51 |
| COc1ccc(CC(=O)O)cc1-c1cc2c(n1C(C)C)C(c1ccc(Cl)cc1)N(c1cc(Cl)c(=O)n(C)c1)C2=O (stereo not drawn) [Example 118, {3-[5-(5-Chloro-1-methyl-6-oxo-1,6-dihydro-pyridin-3-yl)-6-(4-chloro-phenyl)-1-isopropyl-4-oxo-1,4,5,6-tetrahydro-pyrrolo[3,4-b]pyrrol-2-yl]-4-methoxy-phenyl}-acetic acid] | 9.51 |
| COc1nc(N(C)C)ncc1-c1cc2c(n1C(C)C)C(c1ccc(Cl)cc1)N(c1cc(Cl)ccc1C)C2=O (stereo not drawn) [Example 27, 5-(5-Chloro-2-methyl-phenyl)-6-(4-chloro-phenyl)-2-(2-dimethylamino-4-methoxy-pyrimidin-5-yl)-1-isopropyl-5,6-dihydro-1H-pyrrolo[3,4-b]pyrrol-4-one] | 9.65 |
| COc1nc(N(C)C)ncc1-c1cc2c(n1C(C)C)C(c1ccc(C#N)cc1)N(c1cc(Cl)ccc1C)C2=O (stereo not drawn) [Example 95, 4-[5-(5-Chloro-2-methyl-phenyl)-2-(2-dimethylamino-4-methoxy-pyrimidin-5-yl)-1-isopropyl-4-oxo-1,4,5,6-tetrahydro-pyrrolo[3,4-b]pyrrol-6-yl]-benzonitrile] | 9.71 |
| CNC(=O)c1ccc(OC)c(-c2cc3c(n2C(C)C)C(c2ccc(Cl)cc2C)N(c2cc(Cl)ccc2C)C3=O)c1 (stereo not drawn) [Example 31, 3-[5-(5-Chloro-2-methyl-phenyl)-6-(4-chloro-2-methyl-phenyl)-1-isopropyl-4-oxo-1,4,5,6-tetrahydro-pyrrolo[3,4-b]pyrrol-2-yl]-4-methoxy-N-methyl-benzamide] | 9.74 |
| CNC(=O)c1ccc(OC)c(-c2cc3c(n2C(C)C)C(c2ccc(Cl)cc2C)N(c2cc(Cl)c(=O)n(C)c2)C3=O)c1 (stereo not drawn) [Example 145, 3-[5-(5-Chloro-1-methyl-6-oxo-1,6-dihydro-pyridin-3-yl)-6-(4-chloro-2-methyl-phenyl)-1-isopropyl-4-oxo-1,4,5,6-tetrahydro-pyrrolo[3,4-b]pyrrol-2-yl]-4-methoxy-N-methyl-benzamide] | 9.73 |
| COc1nc(N(C)C)ncc1-c1cc2c(n1C(C)C)[C@@H](c1ccc(Cl)cc1)N(c1c[nH]c(=O)c(Cl)c1)C2=O [Example 189, (R)-5-(5-Chloro-6-oxo-1,6-dihydro-pyridin-3-yl)-6-(4-chloro-phenyl)-2-(2-dimethylamino-4-methoxy-pyrimidin-5-yl)-1-isopropyl-5,6-dihydro-1H-pyrrolo[3,4-b]pyrrol-4-one] | 7.98 |
| CNC(=O)Cc1ccc(OC)c(-c2cc3c(n2C(C)C)C(c2ccc(Cl)cc2)N(c2cc(Cl)ccc2C)C3=O)c1 (stereo not drawn) [Example 81, 2-{3-[5-(5-Chloro-2-methyl-phenyl)-6-(4-chloro-phenyl)-1-isopropyl-4-oxo-1,4,5,6-tetrahydro-pyrrolo[3,4-b]pyrrol-2-yl]-4-methoxy-phenyl}-N-methyl-acetamide] | 9.83 |
| COc1ncc(-c2cc3c(n2C(C)C)C(c2ccc(Cl)cc2)N(C2CCC(=O)N(C)C2)C3=O)c(OC)n1 (stereo not drawn) [Example 109, 6-(4-Chloro-phenyl)-2-(2,4-dimethoxy-pyrimidin-5-yl)-1-isopropyl-5-(1-methyl-6-oxo-piperidin-3-yl)-5,6-dihydro-1H-pyrrolo[3,4-b]pyrrol-4-one] | 8.80 |
| CCOC(=O)c1c2c(n(C(C)C)c1-c1cnc(OC)nc1OC)C(c1ccc(Cl)cc1)N(c1cc(Cl)c(=O)n(C)c1)C2=O (stereo not drawn) [Example 220, 5-(5-Chloro-1-methyl-6-oxo-1,6-dihydro-pyridin-3-yl)-6-(4-chloro-phenyl)-2-(2,4-dimethoxy-pyrimidin-5-yl)-1-isopropyl-4-oxo-1,4,5,6-tetrahydro-pyrrolo[3,4-b]pyrrole-3-carboxylic acid ethyl ester] | 9.87 |
| COc1cn(C)c(=O)cc1-c1cc2c(n1C(C)C)C(c1ccc(Cl)cc1)N(c1cn(C)nc1C)C2=O (stereo not drawn) [Example 184, 6-(4-Chloro-phenyl)-5-(1,3-dimethyl-1H-pyrazol-4-yl)-1-isopropyl-2-(5-methoxy-1-methyl-2-oxo-1,2-dihydro-pyridin-4-yl)-5,6-dihydro-1H-pyrrolo[3,4-b]pyrrol-4-one] | 8.25 |
| COc1ccc(CO)cc1-c1cc2c(n1C(C)C)C(c1ccc(Cl)cc1)N(c1cc(Cl)ccc1C)C2=O (stereo not drawn) [Example 11, 5-(5-Chloro-2-methyl-phenyl)-6-(4-chloro-phenyl)-2-(5-hydroxymethyl-2-methoxy-phenyl)-1-isopropyl-5,6-dihydro-1H-pyrrolo[3,4-b]pyrrol-4-one] | 9.95 |
| COc1nc(N(C)C)ncc1-c1cc2c(n1C(C)C)C(c1ccc(Cl)c(F)c1)N(c1cc(Cl)c[nH]c1=O)C2=O (stereo not drawn) [Example 203, 6-(4-Chloro-3-fluoro-phenyl)-5-(5-chloro-2-oxo-1,2-dihydro-pyridin-3-yl)-2-(2-dimethylamino-4-methoxy-pyrimidin-5-yl)-1-isopropyl-5,6-dihydro-1H-pyrrolo[3,4-b]pyrrol-4-one] | 9.92 |
| CNc1ncc(-c2cc3c(n2C(C)C)C(c2ccc(Cl)cc2)N(c2cc(Cl)ccc2C)C3=O)c(OC)n1 (stereo not drawn) [Example 26, 5-(5-Chloro-2-methyl-phenyl)-6-(4-chloro-phenyl)-1-isopropyl-2-(4-methoxy-2-methylamino-pyrimidin-5-yl)-5,6-dihydro-1H-pyrrolo[3,4-b]pyrrol-4-one] | 9.71 |
| COc1ncc(-c2cc3c(n2C(C)C)C(C)(c2ccc(Cl)cc2)N(c2cc(Cl)c(=O)n(C)c2)C3=O)c(OC)n1 (stereo not drawn) [Example 117, 5-(5-Chloro-1-methyl-6-oxo-1,6-dihydro-pyridin-3-yl)-6-(4-chloro-phenyl)-2-(2,4-dimethoxy-pyrimidin-5-yl)-1-isopropyl-6-methyl-5,6-dihydro-1H-pyrrolo[3,4-b]pyrrol-4-one] | 9.68 |
| COc1nc(N(C)C)ncc1-c1cc2c(n1C(C)C)[C@@H](c1ccc(C#N)cc1)N(c1ccc(F)c(Cl)c1)C2=O [Example 170, 4-[(R)-5-(3-Chloro-4-fluoro-phenyl)-2-(2-dimethylamino-4-methoxy-pyrimidin-5-yl)-1-isopropyl-4-oxo-1,4,5,6-tetrahydro-pyrrolo[3,4-b]pyrrol-6-yl]-benzonitrile] | 7.50 |
